Measurements taken from patent US8394742B2, “Methods, compounds and compositions with genotype selective anticancer activity” (The Translation Genomics Research Institute, priority 2005, dated 2013).

Key:
DPC4 [1] = assay: DPC4 suppression in HPDE6 clones after retrovirus infection (Western blot); assay type: cell-based, human
Source text: Because of its high suppression ability in transient transfections, the construct pMSCVpuroH_DPC4_oligo4 was chosen to generate a cell line with stable DPC4 suppression from HPDE6. To verify the specificity of Oligo4, Applicants created a construct with a mutated Oligo4, Oligo4mut10. The only difference between the two oligos is that the nucleotide residue at position 10 was changed from cytosine in Oligo4 to adenine in Oligo4mut10 (FIG. 11A). After retrovirus infection, HPDE6 cells were selected with puromycin at 3 μg/ml. Individual clones were isolated using serial dilution of the cells in 96-well plates. Ten individual clones for each construct were picked and tested for DPC4 expression at protein level by Western blot.
Eight passages after the infection, the expression of DPC4 in this clone was still 90% inhibited compared to the HPDE6 cells transfected with the empty vector (HPDE6-vector). This new cell line, which was named HPDE6-siDPC4, along with HPDE6-vector forms a set of isogenic cell lines for the DPC4 gene.

DPC4 [2] = assay: DPC4 suppression by siRNA expression constructs, transient transfection; assay type: cell-based, human; conditions: MiaPaCa-2 (wild-type DPC4), 24 hours after transfection
Source text: The pMSCVproH vector was first used to create 6 DPC4 siRNA expression constructs, each of which targets a different region of the DPC4 transcript. Each of the oligonucleotide sequences was designed based on the criteria described by Tuschl and co-workers (65) and blasted against the GenBank database to confirm their specificity for DPC4.
Applicants first tested the ability of these constructs in suppressing DPC4 expression by performing transient transfections. Each construct was transiently transfected into the pancreatic cancer cell line MiaPaCa-2 (wild-type DPC4) using the Lipofectin Reagent (Invitrogen). DPC4 expression was examined 24 hours after transfection.

Substance | expression of DPC4 inhibited (DPC4 [1]; HPDE6 clone (HPDE6-siDPC4), eight passages after infection, vs HPDE6-vector) [%] | DPC4 suppression (DPC4 [1]; HPDE6 individual clones, six out of 10, protein level by Western blot) | DPC4 suppression (DPC4 [2])
5′GTAGGACTGCACCATACAC 3′ [Oligo4] | 90 | about 90% | about 90%
5′AGCAAGGTTGCACATAGGC 3′ [Olig6] |  |  | about 80%
